What follows are compounds tested against T1, Dimer of Gag-Pol polyprotein [489-587] (Human immunodeficiency virus 1, UniProt P12497) (assay: Protease Inhibition Assay). Settings: pH 6.2; 37 °C.
T1 construct: 489-587
Procedure: For determination of IC50 values, HIV-1 protease was added to assay buffer containing inhibitor and the substrate (H-His-Lys-Ala-Arg-Val-Leu- (p-NO2) Phe-Glu-Ala-norleucine-Ser-NH2). The Leu- (p-NO2) Phe bond of the substrate was cleaved by the enzyme, and the substrate and products were separated by reversed-phase HPLC. Absorbance was measured at 220 nm, peak areas were determined, and percentage conversion to product was calculated.

`Cc1cc(SC2C(=O)CC(CCc3ccc(O)cc3)(C3CCCCC3)OC2=O)c(C(C)(C)C)cc1OS(=O)(=O)N1CCN(C)CC1` (stereo unspecified) [5-tert-butyl-4-({6-cyclohexyl-4-hydroxy-6-[2-(4-hydroxyphenyl)ethyl]-2-oxo-5,6-dihydro-2H-pyran-3-yl}sulfanyl)-2-methylphenyl 4-methylpiperazine-1-sulfonate] and `Cc1cc(SC2C(=O)CC(C)(CCc3ccc(O)cc3)OC2=O)c(C(C)(C)C)cc1OS(=O)(=O)N1CCN(C)CC1` (stereo unspecified) [5-tert-butyl-4-({4-hydroxy-6-[2-(4-hydroxyphenyl)ethyl]-6-methyl-2-oxo-5,6-dihydro-2H-pyran-3-yl}sulfanyl)-2-methylphenyl 4-methylpiperazine-1-sulfonate] are within 1.5-fold of each other in IC50: 9.7 nM for the first, 7.1 nM for the second.

`CCNS(=O)(=O)Oc1cc(C(C)(C)C)c(SC2C(=O)CC(CCc3ccc(N)cc3)(C(C)C)OC2=O)cc1C` (stereo unspecified) [4-({6-[2-(4-aminophenyl)ethyl]-4-hydroxy-2-oxo-6-(propan-2-yl)-5,6-dihydro-2H-pyran-3-yl}sulfanyl)-5-tert-butyl-2-methylphenyl N-ethylsulfamate] and `CCNS(=O)(=O)Oc1cc(C(C)(C)C)c(SC2C(=O)CC(CCc3ccc(O)cc3)(C(C)C)OC2=O)cc1C` (stereo unspecified) [6-Alkyl-5,6-Dihydropyran-2-one 20] are within 1.5-fold of each other in IC50: 4.3 nM for the first, 4.9 nM for the second.

First: Cc1cc(SC2C(=O)CC(CCc3ccc(O)cc3)(C3CCCCC3)OC2=O)c(C(C)(C)C)cc1OS(=O)(=O)N(C)C (stereo unspecified) [5-tert-butyl-4-({6-cyclohexyl-4-hydroxy-6-[2-(4-hydroxyphenyl)ethyl]-2-oxo-5,6-dihydro-2H-pyran-3-yl}sulfanyl)-2-methylphenyl N,N-dimethylsulfamate]
Second: CCNS(=O)(=O)Oc1cc(C(C)(C)C)c(SC2C(=O)CC(CCc3ccc(O)cc3)(C3CCCCC3)OC2=O)cc1C (stereo unspecified) [5-tert-butyl-4-({6-cyclohexyl-4-hydroxy-6-[2-(4-hydroxyphenyl)ethyl]-2-oxo-5,6-dihydro-2H-pyran-3-yl}sulfanyl)-2-methylphenyl N-ethylsulfamate]
The IC50 of the first is 4.2-fold higher: 20 nM for the first, 4.8 nM for the second. The second is the more potent here.

`Cc1cc(SC2C(=O)CC(CCc3ccc(N)cc3)(C(C)C)OC2=O)c(C(C)(C)C)cc1OS(=O)(=O)N(C)C` (stereo unspecified) [4-({6-[2-(4-aminophenyl)ethyl]-4-hydroxy-2-oxo-6-(propan-2-yl)-5,6-dihydro-2H-pyran-3-yl}sulfanyl)-5-tert-butyl-2-methylphenyl N,N-dimethylsulfamate] and `Cc1cc(SC2C(=O)CC(CCc3ccc(O)cc3)(C(C)C)OC2=O)c(C(C)(C)C)cc1OS(=O)(=O)N(C)C` (stereo unspecified) [6-Alkyl-5,6-Dihydropyran-2-one 22] are within 1.5-fold of each other in IC50: 3.9 nM for the first, 3.4 nM for the second.

Going from `CCCNS(=O)(=O)Oc1cc(C(C)(C)C)c(SC2C(=O)CC(CCc3ccc(O)cc3)(C(C)C)OC2=O)cc1C` (stereo unspecified) [5-tert-butyl-4-({4-hydroxy-6-[2-(4-hydroxyphenyl)ethyl]-2-oxo-6-(propan-2-yl)-5,6-dihydro-2H-pyran-3-yl}sulfanyl)-2-methylphenyl N-propylsulfamate] to `CNS(=O)(=O)Oc1cc(C(C)(C)C)c(SC2C(=O)CC(CCc3ccc(O)cc3)(C(C)C)OC2=O)cc1C` (stereo unspecified) [5-tert-butyl-4-({4-hydroxy-6-[2-(4-hydroxyphenyl)ethyl]-2-oxo-6-(propan-2-yl)-5,6-dihydro-2H-pyran-3-yl}sulfanyl)-2-methylphenyl N-methylsulfamate], the IC50 falls from 3 nM to 1.2 nM (2.5-fold).

First: Cc1cc(SC2C(=O)CC(C)(CCc3ccc(O)cc3)OC2=O)c(C(C)(C)C)cc1O (stereo unspecified) [6-Alkyl-5,6-Dihydropyran-2-one 13]
Second: Cc1cc(SC2C(=O)CC(C)(CCc3ccc(O)cc3)OC2=O)c(C(C)(C)C)cc1OS(N)(=O)=O (stereo unspecified) [[5-tert-butyl-4-({4-hydroxy-6-[2-(4-hydroxyphenyl)ethyl]-6-methyl-2-oxo-5,6-dihydro-2H-pyran-3-yl}sulfanyl)-2-methylphenyl] sulfamate]
The IC50 of the first is 3.6-fold higher: 6.5 nM for the first, 1.8 nM for the second.

`Cc1cc(SC2C(=O)CC(C)(CCc3ccc(O)cc3)OC2=O)c(C(C)(C)C)cc1OS(=O)(=O)N(C)C` (stereo unspecified) [5-tert-butyl-4-({4-hydroxy-6-[2-(4-hydroxyphenyl)ethyl]-6-methyl-2-oxo-5,6-dihydro-2H-pyran-3-yl}sulfanyl)-2-methylphenyl N,N-dimethylsulfamate] and `CCNS(=O)(=O)Oc1cc(C(C)(C)C)c(SC2C(=O)CC(C)(CCc3ccc(O)cc3)OC2=O)cc1C` (stereo unspecified) [5-tert-butyl-4-({4-hydroxy-6-[2-(4-hydroxyphenyl)ethyl]-6-methyl-2-oxo-5,6-dihydro-2H-pyran-3-yl}sulfanyl)-2-methylphenyl N-ethylsulfamate] are within 1.5-fold of each other in IC50: 1.6 nM for the first, 2.3 nM for the second.

First: CCNS(=O)(=O)Oc1cc(C(C)(C)C)c(SC2C(=O)CC(CCc3ccccc3)(C(C)C)OC2=O)cc1C (stereo unspecified)
Second: Cc1cc(SC2C(=O)CC(CCc3ccccc3)(C(C)C)OC2=O)c(C(C)(C)C)cc1OS(=O)(=O)N1CCN(C)CC1 (stereo unspecified) [5-tert-butyl-4-{[4-hydroxy-2-oxo-6-(2-phenylethyl)-6-(propan-2-yl)-5,6-dihydro-2H-pyran-3-yl]sulfanyl}-2-methylphenyl 4-methylpiperazine-1-sulfonate]
The IC50 of the first is 2.3-fold higher: 8.9 nM for the first, 3.9 nM for the second.

First: CCNS(=O)(=O)Oc1cc(C(C)(C)C)c(SC2C(=O)CC(CCc3ccc(O)cc3)(c3ccccc3)OC2=O)cc1C (stereo unspecified) [5-tert-butyl-4-({4-hydroxy-6-[2-(4-hydroxyphenyl)ethyl]-2-oxo-6-phenyl-5,6-dihydro-2H-pyran-3-yl}sulfanyl)-2-methylphenyl N-ethylsulfamate]
Second: CCCNS(=O)(=O)Oc1cc(C(C)(C)C)c(SC2C(=O)CC(C)(CCc3ccc(O)cc3)OC2=O)cc1C (stereo unspecified) [5-tert-butyl-4-({4-hydroxy-6-[2-(4-hydroxyphenyl)ethyl]-6-methyl-2-oxo-5,6-dihydro-2H-pyran-3-yl}sulfanyl)-2-methylphenyl N-propylsulfamate]
The IC50 of the first is 4.2-fold higher: 26 nM for the first, 6.2 nM for the second.

`Cc1cc(SC2C(=O)CC(CCc3ccc(O)cc3)(C(C)C)OC2=O)c(C(C)(C)C)cc1OS(=O)(=O)N1CCOCC1` (stereo unspecified) [5-tert-butyl-4-({4-hydroxy-6-[2-(4-hydroxyphenyl)ethyl]-2-oxo-6-(propan-2-yl)-5,6-dihydro-2H-pyran-3-yl}sulfanyl)-2-methylphenyl morpholine-4-sulfonate] and `Cc1cc(SC2C(=O)CC(CCc3ccc(O)cc3)(C(C)C)OC2=O)c(C(C)(C)C)cc1OS(=O)(=O)N1CCN(C)CC1` (stereo unspecified) [5-tert-butyl-4-({4-hydroxy-6-[2-(4-hydroxyphenyl)ethyl]-2-oxo-6-(propan-2-yl)-5,6-dihydro-2H-pyran-3-yl}sulfanyl)-2-methylphenyl 4-methylpiperazine-1-sulfonate] are within 1.5-fold of each other in IC50: 2.6 nM for the first, 3.1 nM for the second.

In the case of `Cc1cc(SC2C(=O)CC(CCc3ccc(N)cc3)(C(C)C)OC2=O)c(C(C)(C)C)cc1OS(=O)(=O)N1CCN(C)CC1` (stereo unspecified) [4-({6-[2-(4-aminophenyl)ethyl]-4-hydroxy-2-oxo-6-(propan-2-yl)-5,6-dihydro-2H-pyran-3-yl}sulfanyl)-5-tert-butyl-2-methylphenyl 4-methylpiperazine-1-sulfonate], the IC50 is reported as 1 nM.

From BindingDB's records for doi:10.1016/s0960-894x(99)00360-1 (Parke-Davis Pharmaceutical Research, 1999)
